For data set [1] the following is noted: rcm bond, 20-membered ring, Hoveyda-Grubbs II (10 mol%), DCE, 70.0 °C.
The conditions of data set [2]: from C=CCCc1ccccc1Cc1cnc(-c2cc3nc(C)c([C@H](OC(C)(C)C)C(=O)OCC)c(N4CCC(C)(OCC=C)CC4)n3n2)s1, rcm bond, Hoveyda-Grubbs II (7 mol%), DCE, 3.67 mM, 70.0 °C, 2.0 h.
The subject of data set [3] is recombinant NL-Rluc virus. In words: Inhibition of HIV replication (NL-Rluc virus in MT-2 cells, luciferase readout). The data set is classed as cell-based. The conditions noted are these: Human immunodeficiency virus 1, MT2, 120 h.

Where two headings read alike, the source gives them in different places.

`CCOC(=O)[C@@H](OC(C)(C)C)c1c(C)nc2cc3nn2c1N1CCC(C)(CC1)OCC=CCOc1ccccc1Cc1cnc-3s1` registered a ring closure, isolated yield in data set [1] (from C=CCOc1ccccc1Cc1cnc(-c2cc3nc(C)c([C@H](OC(C)(C)C)C(=O)OCC)c(N4CCC(C)(OCC=C)CC4)n3n2)s1, 1.64 mM, 2.0 h) of 76%. For `COC(=O)Cc1c(C)nc2cc3nn2c1N1CCC(C)(CC/C=C/COc2ccccc2Cn2cc-3cn2)CC1`, the ring closure, isolated yield in data set [1] (from C=CCCC1(C)CCN(c2c(CC(=O)OC)c(C)nc3cc(-c4cnn(Cc5ccccc5OCC=C)c4)nn23)CC1, 5.02 mM, 1.0 h) was 63%.

Regarding `CCOC(=O)[C@@H](OC(C)(C)C)c1c(C)nc2cc3nn2c1N1CCC(C)(CC1)OCC=CCCc1ccccc1Cc1cnc-3s1`, the ring closure, yield after HPLC amounted to 8.65% in data set [2] (19-membered ring) and 19.7% in data set [2] (20-membered ring). The compound `COC(=O)[C@@H](OC(C)(C)C)c1c(C)nc2cc3nn2c1N1CCC(C)(CC1)OC/C=C/COc1ccccc1Cc1cnn-3c1` came in with a ring closure, isolated yield in data set [1] (from C=CCOc1ccccc1Cc1cnn(-c2cc3nc(C)c([C@H](OC(C)(C)C)C(=O)OC)c(N4CCC(C)(OCC=C)CC4)n3n2)c1, 1.2 mM, 3.0 h) of 74%. The EC50 is the concentration needed to bring the measured effect to its halfway point. As for `Cc1nc2cc3nn2c(c1[C@H](OC(C)(C)C)C(=O)O)N1CCC(C)(CC1)OCCCCCOc1ccccc1Cc1cnc-3s1` [Example 9, (2S)-2-(tert-Butoxy)-2-{4,28-dimethyl-21,27-dioxa-33-thia-1,5,7,8,11-pentaazahexacyclo[26.2.2.1^6,9.1^10,13.0^2,7.0^15,20]tetratriaconta-2,4,6(34),8,10,12,15(20),16,18-nonaen-3-yl}acetic acid], in data set [3], the EC50 was found to be 2 nM. On the same count and under the same terms, the value for `Cc1nc2cc3nn2c(c1[C@H](OC(C)(C)C)C(=O)O)N1CCC(C)(CC1)OC/C=C/CCOc1ccccc1Cc1cnc-3s1` [Example 8, (2S)-2-(tert-Butoxy)-2-[(24E)-4,28-dimethyl-21,27-dioxa-33-thia-1,5,7,8,11-pentaazahexacyclo[26.2.2.1^6,9.1^10,13.0^2,7.0^15,20]tetratriaconta-2,4,6(34),8,10,12,15(20),16,18,24-decaen-3-yl]acetic Acid] was 8 nM; that for `Cc1nc2cc3nn2c(c1[C@H](OC(C)(C)C)C(=O)O)N1CCC(C)(CC1)OC/C=C/COc1ccc(F)cc1Cc1cnn-3c1` [Example 29, (2S)-2-(tert-Butoxy)-2-[(23E)-17-fluoro-4,27-dimethyl-21,26-dioxa-1,5,7,8,10,11-hexaazahexacyclo[25.2.2.1^6,9.1^10,13.0^2,7.0^15,20]tritriaconta-2,4,6(33),8,11,13(32),15(20),16,18,23-decaen-3-yl]acetic acid] was 2 nM.

(Values after patent US9663536B2, “Inhibitors of human immunodeficiency virus replication” (priority 2013, dated 2017).)
